Results reported in patent publication US20260355154A1, “IMPLANTS, COMPOSITIONS, AND METHODS FOR TREATING RETINAL DISEASES AND DISORDERS” (Osanni Bio, Inc., priority 2024, published 2026).
Where two headings read alike, the source gives them in different places.

What was measured:
[1] = test system: eye; conditions: applied topically in the eye; Grant, Toxicology of the Eye; cited from earlier work
[2] = cited from earlier work
[3] = test system: human embryonic stem-cell derived retinal pigmented epithelium (hESC-RPE); test: Drusen in vitro assay: APOE/APOE4 deposition induced by 5% human serum; type: cell-based; conditions: for minimal effective concentration: Embryonic stem cell, hESC-RPE, 24 h pre-incubation, then 48 h with 5% human serum
Method: (§1) Retinal Pigmented Epithelium Cell Culture: Human embryonic stem-cell derived retinal pigmented epithelium (hESC-RPE) were cultured on Transwell inserts for at least 4 weeks in serum-free XVIVO culture medium. After 4 weeks, polygonal, pigmented monolayers of hESC-RPE were visualized by phase contrast and bright-field microscopy, indicating appropriately matured RPE cells. Drusen assay experiments were performed after the initial 4-week maturation period.
(§2) Drusen Assay: Matured hESC-RPE monolayers were incubated with 5% complement competent human serum (HS) for 48 hours to elicit Drusen formation. After the 48 hour HS incubation period, hESC-RPE monolayers (whole inserts) were fixed with 4% paraformaldehyde for 10 minutes at room temperature. Following fixation, inserts were individually removed from plates and cut out of their holders using a scalpel yielding individual membranes with hESC-RPE monolayers. Membranes were transferred to 24-well plates for storage in phosphate buffered saline with calcium and magnesium (PBS+/+).
Drusen Assay with Atorvastatin Treatment: Matured hESC-RPE inserts were pre-incubated with varying concentrations of atorvastatin (ranging from […]) in both the top and bottom insert compartments for 24 hours in an incubator set at 37 °C with 5% CO2. On the following day, medium was exchanged with fresh culture medium containing atorvastatin and 5% HS and incubated for an additional 48 hours in an incubator set at 37 °C with 5% CO2. After 48 hour incubation period, inserts were fixed and processed for antibody staining.
Fixed membranes were incubated with block solution containing 1% bovine serum albumin (BSA) and 0.1% Triton X in PBS+/+ for 1 hr at room temperature. After the block incubation period, membranes were incubated overnight at 4 °C with primary antibody solution containing 1% BSA and goat anti-APOE4 antibody (1:250) and mouse anti-C5b9 antibody (1:250). On the following day, membranes were washed thrice for 10 min with PBS+/+ and incubated with secondary antibody solution containing 1% BSA and AlexaFluor donkey anti-goat 546 (1:200) and AlexaFluor donkey anti-mouse 488 (1:200) for 1 hr at room temperature in the dark. Following secondary antibody incubation period, membranes were washed thrice for 10 min with PBS+/+ and counterstained with Hoechst solution (1:1000) in PBS+/+ for 10 min at room temperature. Membranes were then transferred to microscope slides and mounted using ProLong Gold anti-fade solution and coverslips. Slides were imaged using a Leica SP8 Scanning Resonant Confocal Microscope using identical settings and laser power. At least 3 fields of view were collected per sample.
Image quantification and figure preparation: Fiji (Image J) software was used for processing all the images. All images were processed with the parameters described below: Contrast adjustment—the value of contrast for the APOE4 channel was set to 90-230 to improve the accuracy of object observation. Thresholding—the cutoff value of the threshold for the APOE4 channel was set as 100 to 255 to identify the pixels as real expressions. Size-Particles with an area larger than 1.5 A.U. were counted as true APOE4 expressions to minimize the likelihood of false positives in the image. Measurements, including deposit counts and the total area, were then exported as a .csv file for analysis. All images were taken in triplicate per treatment. Results are presented as mean±SEM and were graphed using Graph Pad PRISM v6. Statistical significance was established using one-way ANOVA tests followed by Tukey's multiple comparisons test.

[4] = test system: human embryonic stem-cell derived retinal pigmented epithelium (hESC-RPE); test: Complement activity: C5b-9 immunostaining in human serum-treated hESC-RPE; type: cell-based; conditions: increasing concentrations of atorvastatin; 5% human serum; FIG. 4
Method: as §1
as §2, with “(PBS+/+). […]” for “(PBS+/+).”
Image quantification and figure preparation: Fiji (Image J) software was used for processing all the images. […] Size-Particles with an area larger than 1.5 A.U. were counted as true APOE4 expressions to minimize the likelihood of false positives in the image. […]

SMILES	eye damage on topical application [1]	in vivo metabolism ([2]; in vivo, Handbook of Pesticide Toxicology)	excretion ([2]; urine, after oxidation of benzyl alcohol to benzoic acid and conjugation with glucuronic acid)	excretion (minor route) ([2]; urine, to a lesser extent, benzoic acid conjugated with glycine)	minimal effective concentration ([3]; read-out: concentration from which APOE deposition area decreased (starting at))	minimal effective concentration ([3]; read-out: concentration from which total counts of APOE deposits decreased (starting at))	total counts of APOE deposits at higher ATV concentrations ([3]; higher ATV concentrations (above 123 nM), 5% human serum, 48 h)	APOE deposition area at higher ATV concentrations ([3]; higher ATV concentrations (above 370 nM), 5% human serum, 48 h)	APOE deposition (area) ([3]; increasing atorvastatin concentrations, 5% human serum, 48 h)	total counts of APOE deposition ([3]; increasing atorvastatin concentrations, 5% human serum, 48 h, FIG. 3)	expression of APOE4 per field of view ([3]; increasing concentrations of atorvastatin, 5% human serum, FIG. 3)	C5b-9 expression / C5b-9 positive puncta per field of view [4]
O=C(OCc1ccccc1)c1ccccc1 [Benzyl benzoate]	no damage	hydrolyzed to benzoic acid and benzyl alcohol	excreted in the urine as benzoylglucuronic acid	excreted in the urine as hippuric acid	–	–	–	–	–	–	–	–
CC(C)c1c(C(=O)Nc2ccccc2)c(-c2ccccc2)c(-c2ccc(F)cc2)n1CC[C@@H](O)C[C@@H](O)CC(=O)O [Atorvastatin, atorvastatin]	–	–	–	–	0.37 µM	0.123 µM	nearly complete elimination	nearly complete elimination	reduced APOE deposition dose-dependently	reduced the total counts of APOE deposition dose-dependently	decreased expression of APOE4	reduces APOE4 and C5b-9 expression
